Values joined by “and” are separate entries in the source; they are usually repeats but may differ in a detail not shown here. Equal values may be shown once.
Assays:
CYP2J2 = biological target: T1, CYP2J2 (Homo sapiens, UniProt P51589); experiment: CBC metabolism by CYP2J2; assay type: in vitro ADME
T1 construct: His-tag; made in house; host or cells: E. coli DH-5α with pTGro7 plasmid
T1 sequence (P51589 1-502): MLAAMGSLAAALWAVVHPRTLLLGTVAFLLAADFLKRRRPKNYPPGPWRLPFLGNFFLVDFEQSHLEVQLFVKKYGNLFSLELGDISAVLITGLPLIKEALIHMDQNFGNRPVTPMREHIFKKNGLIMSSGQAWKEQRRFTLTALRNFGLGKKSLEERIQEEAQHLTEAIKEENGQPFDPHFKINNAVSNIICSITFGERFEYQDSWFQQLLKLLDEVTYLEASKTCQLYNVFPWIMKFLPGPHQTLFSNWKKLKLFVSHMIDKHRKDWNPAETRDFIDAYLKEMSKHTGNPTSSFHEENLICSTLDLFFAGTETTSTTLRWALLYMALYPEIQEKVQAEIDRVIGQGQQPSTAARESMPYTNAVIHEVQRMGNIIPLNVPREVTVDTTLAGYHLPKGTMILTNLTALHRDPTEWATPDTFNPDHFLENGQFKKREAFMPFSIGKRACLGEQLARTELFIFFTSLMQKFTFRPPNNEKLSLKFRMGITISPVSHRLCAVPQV
Procedure: To study the kinetics of CBC metabolism, concentration dependent metabolism of CBC was carried out in the presence of various CYPs using the following procedure. CYP2J2, CYP2C8, CYP2D6, CYP2C9, and CYP3A4 (final concentration 0.5 μM) were initially dissolved in lipid containing POPC:POPS (8:2 v/v) followed by addition of CPR (final concentration 0.6 μM) in 0.1 M potassium phosphate buffer (pH 7.4). CBC (5–80 μM) was added and incubated at 37 °C for 10 min. The reaction was triggered by NADPH and extracted using the exact sample protocol as mentioned in the HLM section.
Samples were analyzed with the 5500 QTRAP LC/MS/MS system (Sciex, Framingham, MA) in the Metabolomics Lab of Roy J. Carver Biotechnology Center, University of Illinois at Urbana–Champaign. Software Analyst 1.7.1 was used for data acquisition and analysis. The 1200 series HPLC system (Agilent Technologies, Santa Clara, CA) includes a degasser, an autosampler, and a binary pump. […] Multiple reaction monitoring (MRM) was used for quantitation: CBC m/z 315.1 → m/z 135.0; 1-acetoxy-6′,7′-dihydroxy-CBC (JM-I-73) m/z 349.1→ m/z 193.0; 1″-hydroxy-CBC (JM-I-66) m/z 331.1→ m/z 275.1; 6′,7′-epoxy-CBC (JM-I-27) m/z 331.1→ m/z 193.0; 7′,10′-ene-6′-hydroxy-CBC (JM-I-30) m/z 331.1→ m/z 193.0; 8′-hydroxy-CBC (JM-I-32) […]→ m/z 77.0. Internal standard EET-EA-d11 was monitored at m/z 375.2→ m/z 357.1.

[1] = biological target: T2, CYP2C8 in the presence of CPR (Homo sapiens, UniProt P10632); experiment: Spectroscopic titration, CYP2C8–CPR complex; assay type: binding
T2 construct: His-tag; made in house; host or cells: E. coli DH-5α with pTGro7 plasmid (CYP)
T2 sequence (P10632 1-490): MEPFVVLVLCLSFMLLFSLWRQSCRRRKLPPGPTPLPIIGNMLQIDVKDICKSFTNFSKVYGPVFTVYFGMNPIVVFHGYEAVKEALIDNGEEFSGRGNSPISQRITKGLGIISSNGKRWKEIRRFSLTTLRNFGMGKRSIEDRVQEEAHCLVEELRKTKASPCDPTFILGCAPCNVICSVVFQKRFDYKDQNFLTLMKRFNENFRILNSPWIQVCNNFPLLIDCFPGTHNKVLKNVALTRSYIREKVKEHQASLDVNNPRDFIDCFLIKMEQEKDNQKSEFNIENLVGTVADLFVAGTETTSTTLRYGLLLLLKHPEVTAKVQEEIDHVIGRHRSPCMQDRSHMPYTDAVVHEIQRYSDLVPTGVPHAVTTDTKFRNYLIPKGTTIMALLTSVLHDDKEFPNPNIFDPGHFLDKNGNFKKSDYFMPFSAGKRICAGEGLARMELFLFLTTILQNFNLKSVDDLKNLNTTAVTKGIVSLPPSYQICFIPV
T2 sequence (P16435 1-677 partner): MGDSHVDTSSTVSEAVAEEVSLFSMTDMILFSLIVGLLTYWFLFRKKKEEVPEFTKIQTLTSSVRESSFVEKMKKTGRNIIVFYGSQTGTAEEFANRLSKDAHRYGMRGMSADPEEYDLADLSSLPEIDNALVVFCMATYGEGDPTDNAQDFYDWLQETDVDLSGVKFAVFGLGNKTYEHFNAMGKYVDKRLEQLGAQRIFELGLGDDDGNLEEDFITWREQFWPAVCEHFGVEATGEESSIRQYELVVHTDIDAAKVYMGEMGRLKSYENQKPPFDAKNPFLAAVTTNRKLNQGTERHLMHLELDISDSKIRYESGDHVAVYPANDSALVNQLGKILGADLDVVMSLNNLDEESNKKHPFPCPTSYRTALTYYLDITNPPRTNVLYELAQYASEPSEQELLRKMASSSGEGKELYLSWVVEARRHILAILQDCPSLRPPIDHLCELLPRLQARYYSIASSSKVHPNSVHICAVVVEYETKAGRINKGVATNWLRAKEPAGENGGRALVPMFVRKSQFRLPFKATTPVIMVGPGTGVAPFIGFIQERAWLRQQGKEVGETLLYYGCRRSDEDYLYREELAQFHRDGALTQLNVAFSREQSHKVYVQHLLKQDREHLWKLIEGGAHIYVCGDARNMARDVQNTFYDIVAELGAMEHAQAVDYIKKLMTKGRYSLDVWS
Procedure: For CBC titration to CYP–CPR complex, initially CYPs were dissolved in 400 μL of 0.1 M phosphate buffer (pH = 7.4) keeping the concentration between […]. Following this 50 μL of CPR (50 μM stock) was added to both cuvettes, and the final concentration of both of the proteins was 5–6 μM. Both proteins were initially mixed and incubated for 5 min followed by titration with CBC in the same process as mentioned above. The substrate-bound spectra were then subtracted from substrate-free spectra, and the extent of binding was analyzed using Origin Pro 2020.

SMILES | ratio of 8′-hydroxy-CBC to 6′,7′-epoxy-CBC formed (CYP2J2; CYP2J2, from Vmax) | production of 8′-hydroxy-CBC with CYP2J2 relative to CYP2C8 (CYP2J2; CYP2J2 vs CYP2C8) | ΔAmax (spin state change due to heme perturbation) [1] | Kd ([1]; read-out: Kd(app))
CCCCCc1cc(O)c2c(c1)OC(C)(CC/C=C(\C)CO)C=C2 (stereo not shown) [8′-hydroxy-CBC] | approximately 50 | ~10 times |  | 
CCCCCc1cc(O)c2c(c1)OC(C)(CCC=C(C)C)C=C2 (stereo not shown) [CBC, Cannabichromene] |  |  | 0.14 ± 0.00 and ~0.15 | 8.23 µM and ~8 µM and < 10 µM
